Source: paper PMC6269819, “Evaluation of the Biological Activity of Naturally Occurring 5,8-Dihydroxycoumarin” (Molecules, 2013)
Marks after values point to notes of the source that are not given here.

How the values were obtained:
human lymphocytes [1] = assay: Chromosome aberrations in human lymphocyte cultures in vitro; format: cell-based; settings: for CA per 100 cells (±S.E.M.): 24 h treatment, pooled two donors
Method: (§1) Blood samples were taken from two healthy female volunteers (donor A) and (donor B). Whole peripheral blood was grown in HEPES-buffered RPMI 1640 medium supplemented with 12% heat-inactivated newborn calf serum, 7.8 μg/mL phytohemagglutinin P, 50 μg/mL gentamycin, 10 μg/mL 5-bromo-2'-deoxyuridine. All reagents used for the cell culture were purchased from Sigma-Aldrich Chemical Co. (St. Louis, MO, USA). Cell cultures were incubated at 37 °C for 72 h. Treatment with test compounds was carried out 48 h after culture initiation and lasted for the period of 24 h. Dose range of 5,8-DHC (10 to 40 µg/mL) was based on pilot experiments (data not shown). As whole blood cultures display many properties common with the liver microsomal cytochrome P450 system, no external metabolising enzymes were added. 5,8-DHC was dissolved in ethanol and then diluted with RPMI 1640 medium to the desired concentration. Ethanol in a final concentration of 7.5µL/mL was used as a solvent control. […] Working solutions were made just before treatment. Two parallel cultures were used for each concentration of the compound tested. Two cultures were left untreated and served as a blank control. Methyl methanesulfonate (MMS) in a final concentration of 0.02 μL/mL was used as a positive control. The cultures were exposed to colchicine at a final concentration of 0.6 μg/mL for the last 3 h of incubation. The cells were harvested, hypotonically swollen in 0.075 M KCl and fixed in methanol: acetic acid (3:1). Air-dried slides were differentially stained by fluorescence plus Giemsa technique as has been described previously. Briefly, the slides were stained for 10 min. with 10 μg/mL of Hoechst 33258 dye (dissolved in 0.07 M Soerensen’s buffer, pH 6.8). Then the slides were rinsed, mounted with citrate buffer (pH 8.5), covered with cover slips and exposed to UV light (400 W mercury lamp at a distance of 15 cm) for 6–7 min. Slides were then rinsed and stained for 3–4 min. with 5% Giemsa. Cytogenetic analysis was performed on coded slides. No less than 100 first-mitotic division metaphases per culture were analysed for CAs, and no less than 50 second-division metaphases for SCEs.

[2] = DPPH• radical scavenging assay; settings: 16 min reaction
Method: Radical scavenging activity of extracts against stable DPPH^• (2,2-diphenyl-[…] hydrate, Sigma-Aldrich Chemie, Steinheim, Germany) was determined spectrophotometrically by using slightly modified method of Brand-Williams et al. (1995). 5,8-DHC was dissolved in methanol at 0.0025, 0.005, 0.010 and 0.025% concentrations before reaction. A 2 mL aliquot of DPPH^• solution in methanol (6 × 10^−5 M) was mixed with a 50 μL of 5,8-DHC solution in 1 cm path length quartz cuvette. The decreasing absorbance at 515 nm was recorded on a UV spectrophotometer Spectronic Genesys 8 (Spectronic Instruments, Rochester, NY, USA) during 16 min reaction time at 1 min intervals until the absorbance curve reached the plateau. The same amount of methanol and DPPH^• solution was used as a blank. The experiments were carried out in triplicate.

human lymphocytes [3] = assay: Sister chromatid exchanges and replication index in human lymphocyte cultures in vitro; format: cell-based
Method: as §1
Cell replicative kinetics were determined by means of a replicative index (RI = [M1 + 2M2 + 3M3]/N, where M1, M2, M3 are the numbers of cells that had undergone one, two or three cycles of replication, and N is a total number of cells scored). 300 cells were scored to determine RI

[4] = Ferric reducing/antioxidant power (FRAP) assay
Method: The ability of antioxidants to reduce ferric ion to the ferrous ion, (FRAP assay) is another indicator frequently used for assessing antioxidant power. Ferrous ion (Fe^2+) produced in this assay forms a blue complex (Fe^2+/TPTZ) absorbing at 593 nm. Briefly, the reagent was prepared by mixing acetate buffer (300 mM, pH 3.6), a solution of 10 mM TPTZ in 40 mM HCl, and 20 mM FeCl3 × 6H2O at 10:1:1 (v/v/v). Firstly 300 μL of freshly prepared FRAP reagent was heated to 37 °C and an absorbance (A0) of a blank reagent was read at 593 nm in a Biotek EL808 microplate reader (Winooski, VT, USA). Then 10 μL of 0.01% 5,8-DHC solution in water and 30 μL H2O were added and the absorbance (A) was recorded every 1 min during the whole monitoring period which lasted up to 30 min. The change in the absorbance (ΔA593 nm) between the final reading and A0 was calculated for each sample and related to the ΔA593 nm of a Fe^2+ reference solution which was measured simultaneously. The value is expressed in Trolox equivalents required to obtain similar reducing power.

## O=c1ccc2c(O)ccc(O)c2o1 [5,8-DHC, 5,8-Dihydroxycoumarin]
Human lymphocytes [1]; 10 µg/mL
  CA per 100 cells (±S.E.M.): 1.5 ± 0.9 per 100 cells
Human lymphocytes [1]; 15 µg/mL
  CA per 100 cells (±S.E.M.): 3.0 ± 1.2 per 100 cells
Human lymphocytes [1]; 20 µg/mL
  CA per 100 cells (±S.E.M.): 3.5 ± 1.3 per 100 cells
Human lymphocytes [1]; 25 µg/mL
  CA per 100 cells (±S.E.M.): 6.5 ± 1.7 per 100 cells
Human lymphocytes [1]; 30 µg/mL
  CA per 100 cells (±S.E.M.): 7.0 ± 1.8 per 100 cells
Human lymphocytes [1]; 35 µg/mL
  CA per 100 cells (±S.E.M.): 7.0 ± 1.8 per 100 cells
Human lymphocytes [1]; 40 µg/mL
  CA per 100 cells (±S.E.M.): 9.5 ± 2.1 ^b per 100 cells
Human lymphocytes [1]; highest concentration only
  concentration giving statistically significant increase of CAs: 40 µg/mL
[2]
  IC50 in DPPH• assay: 0.0185%
Human lymphocytes [3]
  ratio of regression coefficients donor A / donor B: 2.6 times
Human lymphocytes [3]; Donor A, 10 µg/mL
  RI ± S.E.M: 2.70 ± 0.04
  SCE/ cell ± S.E.M.: 10.2 ± 0.5 SCE/cell
Human lymphocytes [3]; Donor A, 15 µg/mL
  RI ± S.E.M: 2.74 ± 0.31
  SCE/ cell ± S.E.M.: 12.3 ± 0.6 ^b SCE/cell
Human lymphocytes [3]; Donor A, 20 µg/mL
  RI ± S.E.M: 2.65 ± 0.04 ^b
  SCE/ cell ± S.E.M.: 12.7 ± 0.7 ^b SCE/cell
Human lymphocytes [3]; Donor A, 25 µg/mL
  RI ± S.E.M: 2.66 ± 0.04 ^b
  SCE/ cell ± S.E.M.: 13.6 ± 0.6 ^b SCE/cell
Human lymphocytes [3]; Donor A, 30 µg/mL
  RI ± S.E.M: 2.55 ± 0.05 ^b
  SCE/ cell ± S.E.M.: 13.9 ± 0.6 ^b SCE/cell
Human lymphocytes [3]; Donor A, 35 µg/mL
  RI ± S.E.M: 2.51 ± 0.05 ^b
  SCE/ cell ± S.E.M.: 15.0 ± 0.8 ^b SCE/cell
Human lymphocytes [3]; Donor A, 40 µg/mL
  RI ± S.E.M: 2.62 ± 0.04 ^b
  SCE/ cell ± S.E.M.: 19.7 ± 1.5 ^b SCE/cell
Human lymphocytes [3]; Donor B, 10 µg/mL
  RI ± S.E.M: 2.22 ± 0.05 ^b
  SCE/ cell ± S.E.M.: 10.1 ± 0.5 SCE/cell
Human lymphocytes [3]; Donor B, 15 µg/mL
  RI ± S.E.M: 2.35 ± 0.05
  SCE/ cell ± S.E.M.: 10.6 ± 0.5 SCE/cell
Human lymphocytes [3]; Donor B, 20 µg/mL
  RI ± S.E.M: 2.49 ± 0.05
  SCE/ cell ± S.E.M.: 10.3 ± 0.4 SCE/cell
Human lymphocytes [3]; Donor B, 25 µg/mL
  RI ± S.E.M: 2.31 ± 0.05 ^b
  SCE/ cell ± S.E.M.: 9.9 ± 0.5 SCE/cell
Human lymphocytes [3]; Donor B, 30 µg/mL
  RI ± S.E.M: 2.31 ± 0.06 ^b
  SCE/ cell ± S.E.M.: 11.8 ± 0.5 ^b SCE/cell
Human lymphocytes [3]; Donor B, 35 µg/mL
  RI ± S.E.M: 2.17 ± 0.06 ^b
  SCE/ cell ± S.E.M.: 11.5 ± 0.6 ^b SCE/cell
Human lymphocytes [3]; Donor B, 40 µg/mL
  RI ± S.E.M: 2.07 ± 0.06 ^b
  SCE/ cell ± S.E.M.: 13.3 ± 0.6 ^b SCE/cell
Human lymphocytes [3]; donor A
  dose giving statistically significant increase in the frequency of SCEs: 15 µg/mL
  regression coefficient of SCE dose-response relationship: 1.15
Human lymphocytes [3]; donor B
  dose giving statistically significant increase in the frequency of SCEs: ≥ 30 µg/mL
  regression coefficient of SCE dose-response relationship: 0.44
Human lymphocytes [3]; lymphocytes of both donors
  concentration consistently inhibiting cell replicative kinetics: higher than 25 μg/mL
[4]
  FRAP value: 577 ± 0.0 mg/g in Trolox equivalents
